One test concerns β-cell. Particulars: non-metabolizable analogs of glucose; cited from earlier work.
For test [1], the system named is glycerol kinase overexpressing 832/13 cells. Briefly: Lactate output in glycerol kinase overexpressing 832/13 cells. It counts as cell-based, rat. As to conditions: glycerol versus glucose. The source says: (§1) FIG. 9 depicts the effect of glycerol kinase overexpression in 832/13 cells on insulin excretion, lactate output and pyruvate cycling.
(§2) In contrast, pyruvate cycling and lactate output are higher in response to glycerol than to glucose.

The test system is the same in test [2]. Briefly: Pyruvate cycling (13C studies) in glycerol kinase overexpressing 832/13 cells. As to conditions: glycerol versus glucose. It counts as cell-based, rat.
From the text: as §1, §2

For test [3] the test system is unchanged. The test is described as follows: Insulin secretion in glycerol kinase overexpressing 832/13 cells. It counts as cell-based, rat. As to conditions: glucose versus glycerol.
From the text: as §1, §2

The next test has as its system 832/13 cells. The test is described as follows: Insulin secretion assay (radioimmunoassay) in 832/13 cells. In kind it is cell-based, rat. As to conditions: relative to glucose or pyruvate. The procedure: The cell line 832/13 was created from INS-1 insulinoma β-cells as described earlier (Hohmeier et al. (2000) Diabetes 49:424-430). Cells were cultured in RPMI-1640 medium containing 11 mM glucose supplemented with 10% fetal bovine serum, 10 mM HEPES, 2 mM glutamine, 1 mM sodium pyruvate and […] β-mercaptoethanol. Media was routinely changed every second day. 832/13 cells were split to a cell density of 20-30% confluence in 12 well plates. At a cell density of 90%, cells were exposed to virus by adding crude extract directly to the growth media. After 16 hours of transduction, virus containing media was removed and the cells were cultured in fresh media in additional 24 hours before secretion assays. Insulin secretion was assayed in HEPES buffered saline solution (HBSS) (114 mM NaCl, 4.7 mM KCl,1.2 mM KH2PO4, 1.16 mM MgSO4, 20 mM HEPES, 2.5 mM CaCl2, 25.5 mM NaHCO3, pH 7.2 containing 0.2% bovine serum albumin (essentially fatty acid free). Cells were washed in 1 ml of HBSS, preincubated in 1.5 ml of HBSS for 2 hour prior to a 2 hour incubation in the presence of secretagogues as indicated in the figures. The insulin levels were determined by radioimmunoassay with the Coat-A-Count kit (ICN Pharmaceuticals, Costa Mesa, Calif.) and lactate output was determined with a Lactate Reagent kit (Sigma, St. Louis, Mo.) according to protocols outlined by the manufacturer.

The test system of another test is rat INS-1 cells. Particulars: glucose-responsive clones; correlated with pyruvate cycling; cited from earlier work.

Molecules are shown by their SMILES. Entries after “also recorded” stand apart in the source; their conditions may differ.

For the compound `O=CC[C@@H](O)[C@H](O)[C@H](O)CO` [2-deoxy glucose], the “stimulation of insulin release” value with β-cell was “fail to stimulate insulin release”.
Take `CO[C@@H]([C@H](O)[C@H](O)CO)[C@@H](O)C=O` [3-O-methyl glucose]: the “stimulation of insulin release” value in the test on β-cell is “fail to stimulate insulin release”.
For `OCC(O)CO` [glycerol], the lactate output result in test [1] is “higher”. Moreover, the pyruvate cycling result in test [2] is “higher”. In addition, in test [3], the “stimulation of insulin secretion” value is “to the same extent”.
On to `CC(O)C(=O)O` (stereo not shown) [lactate], for which the “stimulation of insulin secretion as secretagogue” value in the test with 832/13 cells (832/13 cells overexpressing LDHA) is reported as “as effective as the other two fuels; also recorded: as effective as glucose or pyruvate”; in the test with 832/13 cells (832/13 cells without LDH overexpression), “poor secretagogue; also recorded: only a weak stimulator of IS”; in the test on 832/13 cells (832/13 cells without LDH overexpression, listed as Lactate) it was “poor secretagogue”.
With `O=C(O)CC(O)C(=O)O` (stereo not shown) [malate], the “effect on glucose-stimulated IS” value with rat INS-1 cells is “potentiated”.
For `O=C(O)Cc1ccccc1` [phenylacetic acid], in the test with rat INS-1 cells, the “effect on glucose-stimulated IS” value was “impaired”.
